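Growth conditions: 96-well plates. Treatment: test compound, 48 hours, 5 concentrations. Analysis: linear interpolation between bracketing concentrations; unreached endpoints set to highest concentration. GI50 marks 50% less growth.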 The source made the active and inactive calls. No stated cut-off is given here; in the data, active = GI50 up to about 1.1 µM and inactive = higher.
How the values were obtained:
Assay in all cases: NCI anticancer screen, dose series, 48 h
HCT-15 = tested on: HCT-15
UACC-62 = tested on: UACC-62
MOLT-4 = tested on: MOLT-4
SK-MEL-2 = tested on: SK-MEL-2
LOX IMVI = tested on: LOX IMVI
SR = tested on: SR
COLO 205 = tested on: COLO 205
RXF 393 = tested on: RXF 393
HOP-62 = tested on: HOP-62
IGROV-1 = tested on: IGROV-1
HCT-116 = tested on: HCT-116
Hs-578T = tested on: Hs-578T
HOP-92 = tested on: HOP-92
A549 = tested on: A549
HL-60 = tested on: HL-60
KM12 = tested on: KM12
Malme-3M = tested on: Malme-3M
HT-29 = tested on: HT-29
CAKI-1 = tested on: CAKI-1
OVCAR-8 = tested on: OVCAR-8

Row | SMILES | GI50 (HCT-15) [µM] | GI50 (UACC-62) | GI50 (MOLT-4) | GI50 (SK-MEL-2) | GI50 (LOX IMVI) | GI50 (SR) | GI50 (COLO 205) | GI50 (RXF 393) | GI50 (HOP-62) | GI50 (IGROV-1) | GI50 (HCT-116) | GI50 (Hs-578T) | GI50 (HOP-92) | GI50 (A549) | GI50 (HL-60) | GI50 (KM12) | GI50 (Malme-3M) | GI50 (HT-29) | GI50 (CAKI-1) | GI50 (OVCAR-8)
1 | Clc1ccc(/C=C/c2nc(-c3ccc(Cl)cc3)cn3c2nc2ccccc23)cc1 | > 100 | > 100 µM (inactive) | 45.1 µM (inactive) | > 100 µM (inactive) | > 100 µM (inactive) | > 100 µM (inactive) | > 100 µM (inactive) | > 100 µM (inactive) | > 100 µM (inactive) | 55.7 µM (inactive) | > 100 µM (inactive) | > 100 µM (inactive) | > 100 µM (inactive) | > 100 µM (inactive) | > 100 µM (inactive) | > 100 µM (inactive) | > 100 µM (inactive) | > 100 µM (inactive) |  | 
2 | CC1=CC(=O)c2cccc(NC3=NCCO3)c21 | 49.4 | > 100 µM (inactive) | 32.7 µM (inactive) | 97.1 µM (inactive) | 37.8 µM (inactive) | 38.2 µM (inactive) | 41.1 µM (inactive) | 48.9 µM (inactive) | > 100 µM (inactive) | 36.1 µM (inactive) | 33.6 µM (inactive) | 76.9 µM (inactive) | 36.1 µM (inactive) | 81.7 µM (inactive) | 19.7 µM (inactive) | 30.4 µM (inactive) | 30.6 µM (inactive) | 34 µM (inactive) | > 100 µM (inactive) | 
3 | S=C(Nc1ccc2cn[nH]c2c1)Nc1ccc2cn[nH]c2c1 | 63.5 | 48.5 µM (inactive) |  | 35.6 µM (inactive) | 70 µM (inactive) | 25.8 µM (inactive) | 44.8 µM (inactive) | > 100 µM (inactive) | > 100 µM (inactive) | 46.8 µM (inactive) | 58.5 µM (inactive) | > 100 µM (inactive) | > 100 µM (inactive) | 96.8 µM (inactive) |  | 53.7 µM (inactive) | > 100 µM (inactive) | 50 µM (inactive) | > 100 µM (inactive) | 72.3 µM (inactive)
4 | CC1(C)[C@@H](Cn2cnc3c(N)ncnc32)CC[C@@]1(C)CO | 51.1 | 32 µM (inactive) | 11.9 µM (inactive) |  | > 100 µM (inactive) | 11.9 µM (inactive) | 71.9 µM (inactive) | > 100 µM (inactive) | > 100 µM (inactive) | 42.7 µM (inactive) | 44.9 µM (inactive) | > 100 µM (inactive) | > 100 µM (inactive) | > 100 µM (inactive) | 40.1 µM (inactive) | 27.4 µM (inactive) | > 100 µM (inactive) | 39.4 µM (inactive) | > 100 µM (inactive) | > 100 µM (inactive)
5 | NS(=O)(=O)c1nnc(NC(=O)C23CC4CC(CC(C4)C2)C3)s1 | > 100 | > 100 µM (inactive) | > 100 µM (inactive) | > 100 µM (inactive) | > 100 µM (inactive) | > 100 µM (inactive) | > 100 µM (inactive) | 61.7 µM (inactive) | > 100 µM (inactive) |  | > 100 µM (inactive) | > 100 µM (inactive) | > 100 µM (inactive) | > 100 µM (inactive) |  | > 100 µM (inactive) | > 100 µM (inactive) |  | > 100 µM (inactive) | > 100 µM (inactive)
6 | CN1CCC2(CC1)/C(=N/C1CCCCC1)NC(=S)N2c1ccccc1 | > 100 | > 100 µM (inactive) | > 100 µM (inactive) |  | > 100 µM (inactive) | > 100 µM (inactive) | > 100 µM (inactive) | > 100 µM (inactive) | > 100 µM (inactive) | > 100 µM (inactive) | > 100 µM (inactive) | 13.8 µM (inactive) | > 100 µM (inactive) | > 100 µM (inactive) | > 100 µM (inactive) | > 100 µM (inactive) | > 100 µM (inactive) | > 100 µM (inactive) |  | > 100 µM (inactive)
7 | CNC(=O)CCC(NC(=O)OC(C)(C)C)C(=O)NC(Cc1ccc(NC(=O)CCCCC(C)=O)cc1)C(=O)NCC(=O)NC (stereo not drawn) | > 100 | > 100 µM (inactive) | > 100 µM (inactive) |  | > 100 µM (inactive) | > 100 µM (inactive) | > 100 µM (inactive) | > 100 µM (inactive) | > 100 µM (inactive) | > 100 µM (inactive) | > 100 µM (inactive) | > 100 µM (inactive) | > 100 µM (inactive) | > 100 µM (inactive) | > 100 µM (inactive) | > 100 µM (inactive) | > 100 µM (inactive) | > 100 µM (inactive) | > 100 µM (inactive) | > 100 µM (inactive)
